Laboratory results taken from patent publication US20080119501A1, “IMMEDIATE RELEASE OXYMORPHONE COMPOSITIONS AND METHODS OF USING SAME” (priority 2006, published 2008).

Assay: Single- and multiple-dose pharmacokinetic and dose-proportionality study of oxymorphone IR tablets in healthy subjects
Settings: for AUC∞, mean: n=23; for AUC(0-inf) / concentration at 6 day / concentration at 7 day / concentration at 8 day / Cmax / half-life: both, human, oral
[1] = single dose oxymorphone IR 5 mg
[2] = single dose oxymorphone IR 5 mg, plasma
[3] = single dose oxymorphone IR 10 mg
[4] = single dose oxymorphone IR 10 mg, plasma
[5] = single dose oxymorphone IR 20 mg
[6] = single dose oxymorphone IR 20 mg, plasma
[7] = steady state, oxymorphone IR 5 mg q6 h
[8] = steady state, oxymorphone IR 10 mg q6 h
[9] = steady state, oxymorphone IR 20 mg q6 h

For CN1CC[C@]23c4c5ccc(O)c4O[C@H]2C(O)CC[C@@]3(O)[C@H]1C5 (stereo partly drawn) [6-OH-oxymorphone], the “t1/2 (terminal elimination half-life), mean” value [1] was 7.27 h, the “terminal elimination rate constant, mean” value [1] was 0.1661 h⁻¹ and the “tmax, median” value [1] was 0.50 h. The “Cmax, mean” value [2] was 095 ng/mL, the “AUC∞, mean” value [2] was 4.02 ng·h/mL and the “t1/2 (terminal elimination half-life), mean” value [3] was 13.72 h. For the same molecule, the “terminal elimination rate constant, mean” value [3] was 0.0752 h⁻¹, the “tmax, median” value [3] was 0.50 h and the “Cmax, mean” value [4] was 1.62 ng/mL. For the same molecule, the “AUC∞, mean” value [4] was 9.90 ng·h/mL, the “t1/2 (terminal elimination half-life), mean” value [5] was 18.35 h and the “terminal elimination rate constant, mean” value [5] was 0.0414 h⁻¹. For the same molecule, the “tmax, median” value [5] was 0.50 h, the “Cmax, mean” value [6] was 3.57 ng/mL and the “AUC∞, mean” value [6] was 24.37 ng·h/mL. For the same molecule, the “deviation from a linear dose response” value (single-dose administration) was “approximately 20%”, the “AUCSS, mean” value [7] was 4.98 ng·h/mL and the “Cavg (average plasma concentration), mean” value (from here on “Cavg”) [7] was 0.83 ng/mL. For the same molecule, the “Cmax, mean” value [7] was 1.55 ng/mL, the “Cmin, mean” value [7] was 0.70 ng/mL and the “tmax, median” value [7] was 0.50 h. For the same molecule, the “AUCSS, mean” value [8] was 10.77 ng·h/mL, the “Cavg” value [8] was 1.80 ng/mL and the “Cmax, mean” value [8] was 3.12 ng/mL. For the same molecule, the “Cmin, mean” value [8] was 1.52 ng/mL, the “tmax, median” value [8] was 0.50 h and the “AUCSS, mean” value [9] was 23.68 ng·h/mL. For the same molecule, the “Cavg” value [9] was 3.95 ng/mL, the “Cmax, mean” value [9] was 6.94 ng/mL and the “Cmin, mean” value [9] was 3.34 ng/mL. For the same molecule, the “tmax, median” value [9] was 0.50 h and the “deviation from a linear dose response” value (steady-state concentrations) was “approximately 10%”.

In the case of CN1CC[C@]23c4c5ccc(O[C@@H]6O[C@H](C(=O)O)[C@@H](O)[C@H](O)[C@H]6O)c4O[C@H]2C(=O)CC[C@@]3(O)[C@H]1C5 [Oxymorphone-3-glucuronide, oxymorphone-3-glucuronide], the “t1/2 (terminal elimination half-life), mean” value [1] was 8.48 h, the “terminal elimination rate constant, mean” value [1] was 0.0936 h⁻¹ and the “tmax, median” value [1] was 1.00 h. For the same molecule, the “Cmax, mean” value [2] was 134.24 ng/mL, the “AUC∞, mean” value [2] was 650.03 ng·h/mL and the “t1/2 (terminal elimination half-life), mean” value [3] was 9.15 h. For the same molecule, the “terminal elimination rate constant, mean” value [3] was 0.0805 h⁻¹, the “tmax, median” value [3] was 1.00 h and the “Cmax, mean” value [4] was 265.78 ng/mL. The “AUC∞, mean” value [4] was 1322.72 ng·h/mL, the “t1/2 (terminal elimination half-life), mean” value [5] was 9.67 h and the “terminal elimination rate constant, mean” value [5] was 0.0763 h⁻¹. The “tmax, median” value [5] was 1.00 h, the “Cmax, mean” value [6] was 516.26 ng/mL and the “AUC∞, mean” value [6] was 2672.40 ng·h/mL. The “AUCSS, mean” value [7] was 618.77 ng·h/mL, the “Cavg” value [7] was 103.13 ng/mL and the “Cmax, mean” value [7] was 180.25 ng/mL. The “Cmin, mean” value [7] was 59.67 ng/mL, the “tmax, median” value [7] was 1.00 h and the “AUCSS, mean” value [8] was 1321.37 ng·h/mL. The “Cavg” value [8] was 220.23 ng/mL, the “Cmax, mean” value [8] was 376.25 ng/mL and the “Cmin, mean” value [8] was 136.77 ng/mL. For the same molecule, the “tmax, median” value [8] was 1.00 h, the “AUCSS, mean” value [9] was 2557.29 ng·h/mL and the “Cavg” value [9] was 426.22 ng/mL. The “Cmax, mean” value [9] was 722.24 ng/mL, the “Cmin, mean” value [9] was 272.54 ng/mL and the “tmax, median” value [9] was 1.00 h.

With CN1CC[C@]23c4c5ccc(O)c4O[C@H]2C(=O)CC[C@@]3(O)[C@H]1C5 [Oxymorphone, oxymorphone] the “dose proportionality of dose-normalised AUC∞, AUCss or Cmax” value (5-20 mg, single dose and steady state) was “linear and dose-proportional pharmacokinetics”, the AUC(0-inf) (plasma, 5 mg) was 4.48 ng·h/mL and the concentration at 6 day (plasma, 5 mg) was 0.47 ng/mL. For the same molecule, the concentration at 7 day (plasma, 5 mg) was 0.5 ng/mL, the concentration at 8 day (plasma, 5 mg) was 0.49 ng/mL and the Cmax (plasma, 5 mg, mean, single dose oxymorphone IR 5 mg) was 1.1 ng/mL. The Cmax (plasma, 5 mg, mean, steady state, oxymorphone IR 5 mg q6 h) was 1.73 ng/mL, the half-life (plasma, 5 mg, t1/2 (terminal elimination half-life), mean, single dose oxymorphone IR 5 mg) was 7.25 h and the AUC(0-inf) (plasma, 10 mg) was 9.1 ng·h/mL. It also gave a concentration at 6 day (plasma, 10 mg) of 0.98 ng/mL, a concentration at 7 day (plasma, 10 mg) of 0.99 ng/mL and a concentration at 8 day (plasma, 10 mg) of 1.16 ng/mL. For the same molecule, the Cmax (plasma, 10 mg, mean, single dose oxymorphone IR 10 mg) was 1.93 ng/mL, the Cmax (plasma, 10 mg, mean, steady state, oxymorphone IR 10 mg q6 h) was 3.51 ng/mL and the half-life (plasma, 10 mg, t1/2 (terminal elimination half-life), mean, single dose oxymorphone IR 10 mg) was 7.78 h. For the same molecule, the AUC(0-inf) (plasma, 20 mg) was 20.1 ng·h/mL, the concentration at 6 day (plasma, 20 mg) was 2.05 ng/mL and the concentration at 7 day (plasma, 20 mg) was 2.31 ng/mL. For the same molecule, the concentration at 8 day (plasma, 20 mg) was 2.47 ng/mL, the Cmax (plasma, 20 mg, mean, single dose oxymorphone IR 20 mg) was 4.39 ng/mL and the Cmax (plasma, 20 mg, mean, steady state, oxymorphone IR 20 mg q6 h) was 7.33 ng/mL. For the same molecule, the half-life (plasma, 20 mg, elimination half-life (t1/2) across doses, single dose, oxymorphone IR 5, 10 and 20 mg) was 7.3 to 9.4 h, the half-life (plasma, 20 mg, t1/2 (terminal elimination half-life), mean, single dose oxymorphone IR 20 mg) was 9.43 h and the “time to achieve steady-state conditions” value (dosing every 6 hours, from trough concentrations) was 3 to 4 days. The “CL/F (oral clearance), mean” value [1] was 23.53 L/min, the “Ln-CL/F, geometric least square mean (standard error), normalised to 10 mg” value (shortened to “Ln-CL/F … (standard error), normalised to 10 mg”) [1] was 20.61 (1.05) L/min and the “terminal elimination rate constant, mean” value [1] was 0.1534 h⁻¹. For the same molecule, the “CL/F (oral clearance), mean” value [3] was 21.42 L/min, the “Ln-CL/F … (standard error), normalised to 10 mg” value [3] was 19.62 (1.05) L/min and the “terminal elimination rate constant, mean” value [3] was 0.1257 h⁻¹. The “CL/F (oral clearance), mean” value [5] was 18.21 L/min, the “Ln-CL/F … (standard error), normalised to 10 mg” value [5] was 17.27 (1.05) L/min and the “terminal elimination rate constant, mean” value [5] was 0.0835 h⁻¹. The “Ln-CL/F … (standard error), normalised to 10 mg” value (steady state, every 6 hours, oxymorphone IR 5 mg) was 18.70 (1.03) L/min, the “Ln-CL/F … (standard error), normalised to 10 mg” value (steady state, every 6 hours, oxymorphone IR 10 mg) was 17.08 (1.03) L/min and the “Ln-CL/F … (standard error), normalised to 10 mg” value (steady state, every 6 hours, oxymorphone IR 20 mg) was 16.72 (1.03) L/min. The “C/LF (oral clearance), mean” value [7] was 19.23 L/min, the “Cavg” value [7] was 0.77 ng/mL and the “Cmin, mean” value [7] was 0.49 ng/mL. For the same molecule, the “C/LF (oral clearance), mean” value [8] was 17.63 L/min, the “Cavg” value [8] was 1.70 ng/mL and the “Cmin, mean” value [8] was 1.16 ng/mL. The “tmax, median” value [8] was 0.50 h, the “C/LF (oral clearance), mean” value [9] was 17.68 L/min and the “Cavg” value [9] was 3.52 ng/mL. The “Cmin, mean” value [9] was 2.47 ng/mL.
